The source of these data is patent US20210153484A1, “Humanized Mouse Model” (The Wistar lnstitute, priority 2018, published 2021).

“Also recorded” adds a separate entry of the source.

For assay [1], the system named is human γ/δ+ T-cells. Kind of assay: Human T γ/δ cells in reconstituted Hu-mice treated with HMBPP (IHC). In kind it is in vivo, mouse. Particulars: HMBPP 50 mg/kg i.p. From the text:
FIGS. 6A-6C illustrate the human immune subpopulation in spleen, thymus, lymph node, small intestines (SI) and lungs of humanized mice. […] Mouse SI and lungs show presence of IgA+ and IgE+ cells (left and right panels) as determined by mouse anti-human IgA or […] antibodies. Minimal staining of mouse cells was observed when the tissue sections were stained with anti-mouse specific antibodies (See FIG. 23). […] Mouse spleen (left panels; a), thymus (middle panels) and mesenteric lymph nodes (right panels) show presence of CD4+ (top panels) and CD8+ (bottom panels) T-cells as determined by IHC staining using anti-human CD4 or CD8 antibodies. […] Presence of T γ/δ cells were determined in a IHC staining by using mouse anti-human TcR γ/δ antibody.
Besides the presence of human CD45+ cells, the presence of monocytes/myeloid lineage cells HLA DR+, CD33+, CD15+, CD11b+ and CD14+ was observed (FIG. 5D). […] B-cells are fully functional, as antigen specific IgG were detected in circulating blood (see anti-hTERT response below), and IgA and IgE with unknown specificity in the mucosal layers of small intestines and the lungs (FIG. 6B, FIG. 23). Human CD4+ and CD8+ subpopulations of T-cells were detected in spleen, thymus and mesenteric lymph node tissues (FIG. 6C). […]

Assay [2] relates to WM3629 [HLA-A3] melanoma cells. Kind of assay: Anti-PD1 therapy in Hu-mice melanoma model, WM3629 tumors. The class given is in vivo, mouse. Particulars: anti-PD1 10 mg/kg i.p. weekly. Here is the method:
(§1) FIGS. 8A-8H illustrate functional characterization of human immune cells in humanized mice. FIGS. 8A-8C show T- and B-cell response to hTERT vaccine. FIG. 8A is a schema for hTERT DNA vaccination. Hu-mice received a total of 3 injections of hTERT vaccine (hTERT DNA [50 μg; i.m] followed by electroporation) every 2 weeks and the mice were sacrificed 1 week after the last injection to determine T- and B-cell responses. […] Spleen cells from Hu-mice (n=3) were stimulated overnight (18 h) with pools of overlapping hTERT peptides (15 mer; 2 μg/ml/peptide) spanning the entire hTERT protein. Human IFNγ was detected in ELISPOT assay using a kit. […] Endpoint binding titer was determined in sera of hTERT vaccinated mice after 3 immunizations and compared to sera from NSG mice as controls. […] Tumor growth measurements are recorded using digital caliper by an independent researcher. […]
(§2) All animal experiments were performed according to protocols approved by the Wistar Institute's Institutional Animal Care and User Committee (IACUC). […] Six to 8 weeks (>50 days) later, presence of human immune cells was monitored by multi-color flow cytometry using 18 color BD LSR II Analyzer (BD Biosciences; Somasundaram et al. Nat. Commun. 2017, 8(1):607). […] Tumors were measured twice a week using digital calipers.

The test system of assay [3] is A375 [HLA-A2] melanoma cells. Put plainly: Anti-PD1 therapy in Hu-mice melanoma model, A375 tumors. In kind it is in vivo, mouse. Particulars: anti-PD1 10 mg/kg i.p. weekly. On the procedure:
as §1, §2

The test system of assay [4] is 451LU melanoma. Kind of assay: Anti-PD1 therapy in Hu-mice melanoma model, aggressively growing 451LU tumors. In kind it is in vivo, mouse. On the procedure:
All animal experiments were performed according to protocols approved by the Wistar Institute's Institutional Animal Care and User Committee (IACUC). NOD/LtSscidIL2Rγ^null (NSG) mice were inbred at The Wistar Institute under license from the Jackson Laboratory. For humanization, fetal liver and thymus were obtained from the same donor (18-22 weeks of gestation). NSG mice (6 to 8 weeks) received thymus graft (1 mm^3) in sub-renal capsule 24 h post myeloablation using Busulfan (30 mg/kg, i.p.; Sigma-Aldrich [B2635], St. Louis, Mo.). This is immediately followed by injection of autologous liver-derived CD34^+ hematopoietic stem cells (10^5 cells/mouse, i.v., FIG. 5A) that was magnetically sorted by microbeads conjugated with anti-human CD34 (Miltenyi Biotec., [130-046-703], Auburn, Calif.; Chen et al. Bio Protoc. (2013) 3(23)). Six to 8 weeks (>50 days) later, presence of human immune cells was monitored by multi-color flow cytometry using 18 color BD LSR II Analyzer (BD Biosciences; Somasundaram et al. Nat. Commun. 2017, 8(1):607). To accelerate human immune cell reconstitution mice received AAV8 encoding human IL-3, IL-7 and GM-CSF (FIG. 5; FIG. 20A; 10^8; iv; Wu, . . . Ertl., et al 2013). […] Tumors were measured twice a week using digital calipers.

Assay [5] has as its system tumor-infiltrating immune cells. Put plainly: IHC, MassCyTOF and RNA-seq/CIBERSORT analysis of tumors from anti-PD1 treated Hu-mice. The class given is in vivo, mouse. On the procedure:
(§3) IHC staining was performed as previously described (Somasundaram et al 2017). Briefly, tissue sections were subjected to antigen retrieval by incubation with Target Retrieval Solution (Citrate [S1699] or Tris-EDTA buffers [S2367]; Agilent-DAKO, Santa Clara, Calif.) kit at 95° C. for 20 min and subsequently incubated with primary antibodies with optimum dilutions (FOXP3 [1:10]; CD4, HLA class I, HMB45 and mast cell tryptase [all at 1:100 dilution]; CD68, IgA and IgE [all at 1:400 dilution] and CD8 [1:500 dilution]. For detection of primary antibodies slides were incubated with anti-mouse, anti-rat or anti-rabbit antibodies at 1:1000 dilution and visualized by DAB (SK-4100) or AEC (SK-4200; both Vector Laboratories, Burlingame, Calif.) chromogens.
CyTOF staining was performed as previously described (Wang et al 2019). Briefly, carrier-free antibodies were commercially obtained and tagged with lanthanide metals using the Maxpar X8 metal conjugation kit from Fluidigm^R (201300, Ontario, Canada). Antigen retrieval was performed on deparaffinized tissue sections at 95° C. for 30 min in Tris/EDTA buffer, slides were cooled, blocked with 3% BSA-PBS solution and incubated with cocktail of antibodies (100 ul) overnight at 4° C. Next day slides were washed 3× with PBS and labeled with 1:400 dilution of Intercalator-Ir (Fluidigm 201192B) in PBS for 30 min at RT. Slides were washed with water (3×) and air dried for 30 mins before image mass cytometry acquisition using Fluidigm Hyperion Imaging System.
RNAseq was done using ScriptSeq RNA-seq library preparation kit (Illumina, [BHMR1205], San Diego, Calif.). Quality control of RNA and DNA library was done using the Tapestation 4200 and Bioanalyzer 2100 system (Agilent, Santa Clara, Calif.). Library quantification was done using the Kapa Library Quantification qPCR kit (Roche, [KK4854], Pleasanton, Calif.) and subjected to a 75 bp paired-end sequencing run on Illumina's NExtSeq 500 high output kit following the manufacturer's protocol. RNA-seq analysis was performed using RSEM v1.2.12 software and downstream expression analysis was done using Differential2 (Shuai Wu et al. Nature Commun. 2018; 9: 4166). RNA-seq data was used to enumerate tumor-infiltrating leukocytes using CIBERSORT, an analytical tool available online (cibersort.stanford.edu) (Chen et al. Methods Mol. Biol. 2018; 1711:243-259).
In order to understand the phenomenon of mixed therapy responses to anti-PD1 treatment, IHC, multiplexed imaging using MassCyTOF and RNA-seq was performed on tumors obtained from anti-PD1 treated Hu-mice and they were compared with control Ig treated mice. […]

In assay [6] the test system is mast cells in tumor. Put plainly: Mast cell immunostaining of melanoma patients' tumors after anti-PD1 therapy. Particulars: compared to untreated individuals. In kind it is in vivo, human. Here is the method:
as §3

The mark [7] stands for this setting: compared to control IgG or non-reconstituted NSG mice treated with anti-PD1, listed as Anti-PD1 antibody.
Where [8] appears, read: compared to control IgG or non-reconstituted NSG mice treated with anti-PD1, listed as anti-PD1 antibody.

As for `C/C(=C\COP(=O)(O)OP(=O)(O)O)CO` [HMBPP, hydroxy-2-methyl-2-butenyl 4-pyrophosphate], the “human T γ/δ cells in tissues” value in assay [1] is listed as “further expanded”.

Regarding “anti-PD1: anti-PD-1 antibody (Keytruda, Merck, Rahway, N.J.)”, the “tumor growth of WM3629 melanoma” value is “restrict tumor growth” in assay [2] (setting [7]) and “significantly restricted tumor growth” in assay [2] (setting [8]). In addition, the “tumor growth of A375 melanoma” value is given as “restrict tumor growth” in assay [3] (setting [7]) and “significantly restricted tumor growth” in assay [3] (setting [8]). For the same compound, the “immune infiltrating cells by IHC staining” value in assay [4] (451Lu tumors in Hu-mice after anti-PD1) is on record as “No immune infiltrating cells were detected”. Further, the “tumor growth of 451LU melanoma” value in assay [4] (Hu-mice, aggressively growing metastatic melanoma) is listed as “negligible effect on growth; also recorded: unable to restrict tumor growth”. In assay [5] (H&E/IHC, compared to control IgG treated / untreated Hu-mice), the “immune (leukocyte) infiltration in tumor sections” value is listed as “Higher levels of immune infiltration; also recorded: dense leukocyte infiltration”. Moreover, the “transcription of chemokine genes (CCL2, CCL3, CCL4, CCLS, CXCL9, CXCL10 and CXCL11)” value in assay [5] (RNA-seq of tumors after anti-PD1 treatment) was “higher transcription”. Moreover, the “mast cell numbers in tumors (mast cell tryptase IHC)” value in assay [5] (compared to control Ig treated mice) is reported as “increased numbers”. Further, in assay [5] (tumors from Hu-mice with and without anti-PD1), the “tumor resident mast cells / mast related genes by CIBERSORT of RNA-seq data” value is on record as “higher presence of tumor resident mast cells; also recorded: higher expression of mast related genes”. Moreover, the “mast cells in melanoma patients' tumor” value in assay [6] is reported as “increased presence of mast cells”.
